Assay results taken from patent US9737505B2, “Prodrug of 1,1′-(1,6-dioxo-1,6-hexanediyl)bis-D-proline” (GlaxoSmithKline Intellectual Property Development Limited, priority 2014, dated 2017).
Read-outs that look alike come from different tables or passages of the source.

Columns and labels:
[1] = Liver microsomal stability; assay type: in vitro ADME
Experimental: (§1) The assay was designed for determining stability of compound in microsomal matrix. Compound (Compound of Formula (I)) was dissolved in DMSO at 1 mg/ml. Daughter solution was prepared in methanol/water (50/50) at 30.3 ng/ml. Microsomes (from Xenotech) were diluted at 0.625 mg proteins per ml in phosphate buffer 50 mM pH 7.4.
Pre-Incubation consisted of warming microsomal solution 395 μl with 100 μl NaHCO3 (2%) at 37° C. for 7 min. Incubation was started with the addition of 5 μl of daughter solution. 50 μl aliquots of mixture were taken at 0, 3, 6, 12 and 30 min and quenched with 150 μl acetonitrile containing internal standard.
(§2) After 10 min centrifugation at 4000 rpm, 2 μl of samples were injected into the liquid chromatography system and eluted on a Ascentis C18 column (50×2.1 mm id, 2.7 μm) with 0.1% formic acid in water (A) and 0.1% formic acid in acetonitrile (B), using the following 2 minute elution gradient: 5 to 95% B over 1.2 min, 95% B over 0.6 min and 0.1 min for re-equilibrate column, at 0.5 mL/min at 50° C.
Samples were analysed by Mass Spectrometry with an electrospray source, in positive mode and with following mass transitions: • Compound of Formula (I): 657 to 384 • Monoester of CPHPC: 499 to 226 • CPHPC: 341 to 226 […]
In vitro liver microsomal activity of was assessed using the protocol detailed above (Intestine and Liver Microsomal Assay protocol).

[2] = Physical stability (hydrolysis) in phosphate buffer at various pHs; assay type: physicochemical; settings: acidic environment (pH less than 7.0), room temperature
Experimental: The assay was designed for determining physical stability of compound in buffer at various pHs. Compound of Formula (I) was dissolved in DMSO at 1 mg/ml. Phosphate buffer (PBS) was prepared by mixing K2HPO4 50 mM and KH2PO4 50 mM solutions to obtain 4 buffers at pH 6.0, 7.0, 7.5, 8.0.
Stability studies were conducted at room temperature, and were started by the addition of 8 μl of DMSO solution to 792 μl of PBS 50 mM at pH 6.0, 7.0, 7.5 or 8.0 (1% DMSO). 75 μl of mixture was taken at 0, 1, 2, 4 and 24 h and 225 μl acetonitrile containing internal standard was added.
as §2, with “2” for “After 10 min centrifugation at 4000 rpm, 2”, “eluted with” for “eluted on”, “μm) and” for “μm)”, “following elution” for “following”, “2 min” for “2 minute elution”
Samples were analysed by Mass Spectrometry with an electrospray source and in positive mode and with following mass transitions: • Compound of Formula (I): 657 to 384 • Monoester of CPHPC: 499 to 226 • CPHPC: 341 to 226

[3] = Solubility in aqueous media; assay type: physicochemical; settings: for solubility at 4 h: thermodynamic from solid, read-out: Solubility at 4 hour timepoint
Experimental: A known quantity of the compound of Formula (I) was weighed into a suitable vessel (e.g. a screw capped clear glass vial) and a known volume of the required media added (e.g. Simulated Gastric Fluid pH 1.6[SGF], Simulated Fed State Intestinal Fluid pH 6.5 [FeSSIF], Simulated Fasted State Intestinal Fluid pH 6.5 [FaSSIF], Water [Purified Water], or Britton-Robinson buffer). The compound was wetted with the media by vortex mixing for 30 seconds to 1 minute. The sample was then visually observed to ensure that undissolved solid remained present. The sample was transferred to a gentle mixer (such as a roller mixer) and allowed to agitate until the desired time point was reached. At appropriate times the sample was reassessed visually. If all the solid had dissolved the solubility was recorded as >x mg/ml where x is the known weight used divided by the volume added. If undissolved solid remained a portion of the sample was taken and centrifuged to remove the solid leaving a clear supernatant. The supernatant was diluted volumetrically with a suitable diluent to provide an analytical sample of suitable concentration for analysis. This diluted sample was then analysed by a suitable method such as HPLC against a standard(s) of known concentration. The solubility of the compound can then be calculated using a knowledge of the concentration of the standard, the relative response (e.g. peak areas) of the standard and the analytical sample described, and the dilution of the analytical sample.

[4] = biological target: T1, CYP2C9 (Homo sapiens, UniProt P11712); assay: Cytochrome p450 inhibition assay (bactosomes, fluorogenic substrate FCA); assay type: biochemical; settings: recombinant human CYP (Cypex bactosomes)
T1 construct: purchased Cypex; host or cells: bactosomes (bacterial membranes)
Experimental: (§3) The assay was designed to evaluate inhibition on cytochrome P450 (CYP) 3A4, 2C9, 2C19, 1A2 and 2D6 enzymes from bactosomes source using fluorogenic substrates. Compound (compound of Formula (I) or Comparator Compound) was dissolved in methanol at 1.65 mM. Daughter solutions were prepared in methanol at 660, 264, 106, 42, 17, 6.8, 2.7, 1.1 and 0.43 μM. NADPH cofactor was prepared with Glucose-6-phosphate (7.8 mg), Glucose-6-phosphate dehydrogenase (6 units), NADP (1.7 mg) per 1 mL in NaHCO3 2%. Substrate preparation was as follows: • 7-Methoxy-4-triFluoromethyl Coumarin-3-Acetic acid ethyl ester (FCA): 12.5 mM in acetonitrile • EthoxyResorufin (ER): 0.05 mM in acetonitrile • 4-MethylaminoMethyl-7-Methoxy Coumarin (MMC): 2.5 mM in methanol • 3-Butyryl-7Methoxy Coumarin (BMC): 2.5 mM in DMSO • 7-BenzyloxyQuinoline (7BQ): 2.5 mM in acetonitrile • DiEthoxyFluorescein (DEF): 0.1 mM in acetonitrile Bactosomes (Cypex source) at the concentration of 10 mg of protein per ml were diluted in phosphate buffer 50 mM pH7.4: • 0.33 ml of bactosomes CYP2C9 with 23.8 ml of buffer and 0.11 ml of FCA • 0.33 ml of bactosomes CYP1A2 with 23.6 ml of buffer and 0.275 ml of ER • 0.33 ml of bactosomes CYP2D6 with 23.8 ml of buffer and 0.11 ml of MMC • 0.33 ml of bactosomes CYP2C19 with 23.8 ml of buffer and 0.11 ml of BMC • 0.33 ml of bactosomes CYP3[…] with 23.6 ml of buffer and 0.275 ml of 7BQ • 0.33 ml of bactosomes CYP3[…] with 23.6 ml of buffer and 0.275 ml of DEF Pre-Incubation consisted in mixing 5 μl of compound solution with 220 μl diluted bactosomes and warming it at 37° C. for 10 min. Incubation was started with the addition of 25 μl of NADPH. […]

[5] = biological target: T2, CYP2D6 (Homo sapiens, UniProt P10635); assay: Cytochrome p450 inhibition assay (bactosomes, fluorogenic substrate MMC); assay type: biochemical; settings: recombinant human CYP (Cypex bactosomes)
T2 construct: purchased Cypex; host or cells: bactosomes (bacterial membranes)
Experimental: as §3

[6] = Intestinal microsomal stability; assay type: in vitro ADME; settings: 37° C., even after 60 minutes
Experimental: as §1
Pre-Incubation consisted of warming microsomal solution 395 μl with 100 μl NaHCO3 (2%) at 37° C. for 7 min. Incubation was started with the addition of 5 μl of daughter solution. […]
as §2
Samples were analysed by Mass Spectrometry with an electrospray source, in positive mode and with following mass transitions: • Compound of Formula (I): 657 to 384 • Monoester of CPHPC: 499 to 226 • CPHPC: 341 to 226
Controls were made to calculate percentage of disappearance of parent but also appearance of suspected metabolite, i.e. monoester and diacidic form.

[7] = biological target: T3, CYP2C19 (Homo sapiens, UniProt P33261); assay: Cytochrome p450 inhibition assay (bactosomes, fluorogenic substrate BMC); assay type: biochemical; settings: recombinant human CYP (Cypex bactosomes)
T3 construct: purchased Cypex; host or cells: bactosomes (bacterial membranes)
Experimental: as §3

[8] = biological target: T4, CYP1A2 (Homo sapiens, UniProt P05177); assay: Cytochrome p450 inhibition assay (bactosomes, fluorogenic substrate ER); assay type: biochemical; settings: recombinant human CYP (Cypex bactosomes)
T4 construct: purchased Cypex; host or cells: bactosomes (bacterial membranes)
T4 sequence (P05177 1-516): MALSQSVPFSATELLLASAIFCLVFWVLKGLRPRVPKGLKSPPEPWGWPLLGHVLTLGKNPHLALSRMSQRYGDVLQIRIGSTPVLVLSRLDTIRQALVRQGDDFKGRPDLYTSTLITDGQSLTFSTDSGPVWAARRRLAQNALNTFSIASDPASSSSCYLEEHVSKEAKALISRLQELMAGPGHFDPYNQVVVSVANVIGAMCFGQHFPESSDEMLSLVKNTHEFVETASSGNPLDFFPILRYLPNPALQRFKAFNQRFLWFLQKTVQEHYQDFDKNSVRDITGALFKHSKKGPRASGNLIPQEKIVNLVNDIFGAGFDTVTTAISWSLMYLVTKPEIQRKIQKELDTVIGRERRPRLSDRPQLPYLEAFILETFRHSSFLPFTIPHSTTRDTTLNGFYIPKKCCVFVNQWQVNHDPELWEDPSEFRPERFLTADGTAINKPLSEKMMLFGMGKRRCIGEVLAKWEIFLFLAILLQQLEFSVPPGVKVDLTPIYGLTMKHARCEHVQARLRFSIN
Experimental: as §3

[9] = biological target: T5, CYP3A4 (Homo sapiens, UniProt P08684); assay: Cytochrome p450 inhibition assay (bactosomes, fluorogenic substrates 7BQ and DEF); assay type: biochemical; settings: recombinant human CYP (Cypex bactosomes)
T5 construct: purchased Cypex; host or cells: bactosomes (bacterial membranes)
Experimental: The assay was designed to evaluate inhibition on cytochrome P450 (CYP) 3A4, 2C9, 2C19, 1A2 and 2D6 enzymes from bactosomes source using fluorogenic substrates. Compound (compound of Formula (I) or Comparator Compound) was dissolved in methanol at 1.65 mM. Daughter solutions were prepared in methanol at 660, 264, 106, 42, 17, 6.8, 2.7, 1.1 and 0.43 μM. NADPH cofactor was prepared with Glucose-6-phosphate (7.8 mg), Glucose-6-phosphate dehydrogenase (6 units), NADP (1.7 mg) per 1 mL in NaHCO3 2%. Substrate preparation was as follows: • 7-Methoxy-4-triFluoromethyl Coumarin-3-Acetic acid ethyl ester (FCA): 12.5 mM in acetonitrile • EthoxyResorufin (ER): 0.05 mM in acetonitrile • 4-MethylaminoMethyl-7-Methoxy Coumarin (MMC): 2.5 mM in methanol • 3-Butyryl-7Methoxy Coumarin (BMC): 2.5 mM in DMSO • 7-BenzyloxyQuinoline (7BQ): 2.5 mM in acetonitrile • DiEthoxyFluorescein (DEF): 0.1 mM in acetonitrile Bactosomes (Cypex source) at the concentration of 10 mg of protein per ml were diluted in phosphate buffer 50 mM pH7.4: • 0.33 ml of bactosomes CYP2C9 with 23.8 ml of buffer and 0.11 ml of FCA • 0.33 ml of bactosomes CYP1A2 with 23.6 ml of buffer and 0.275 ml of ER • 0.33 ml of bactosomes CYP2D6 with 23.8 ml of buffer and 0.11 ml of MMC • 0.33 ml of bactosomes CYP2C19 with 23.8 ml of buffer and 0.11 ml of BMC • 0.33 ml of bactosomes CYP3[…] with 23.6 ml of buffer and 0.275 ml of 7BQ • 0.33 ml of bactosomes CYP3[…] with 23.6 ml of buffer and 0.275 ml of DEF Pre-Incubation consisted in mixing 5 μl of compound solution with 220 μl diluted bactosomes and warming it at 37° C. for 10 min. Incubation was started with the addition of 25 μl of NADPH. Then fluorescence of substrate metabolite was read in a SAFIRE instrument (from Tecan) for 5 min: • FCA (2C9): Excitation at 410 nm and Emission at 510 nm • ER (1A2): Excitation at 530 nm and Emission at 590 nm • MMC (2D6): Excitation at 410 nm and Emission at 485 nm • BMC (2C19): Excitation at 410 nm and Emission at 465 nm • 7BQ (3A4H): Excitation at 410 nm and Emission at 530 nm • DEF (3A4L): Excitation at 485 nm and Emission at 530 nm Plotting of inhibition of substrate production against compound concentration allowed the determination of IC50 values.

[10] = substrate 7BQ, read-out: IC50 CYP3A4 (7BQ)
[11] = substrate DEF, read-out: IC50 CYP3A4 (DEF)

T5 sequence (P08684 whole entry): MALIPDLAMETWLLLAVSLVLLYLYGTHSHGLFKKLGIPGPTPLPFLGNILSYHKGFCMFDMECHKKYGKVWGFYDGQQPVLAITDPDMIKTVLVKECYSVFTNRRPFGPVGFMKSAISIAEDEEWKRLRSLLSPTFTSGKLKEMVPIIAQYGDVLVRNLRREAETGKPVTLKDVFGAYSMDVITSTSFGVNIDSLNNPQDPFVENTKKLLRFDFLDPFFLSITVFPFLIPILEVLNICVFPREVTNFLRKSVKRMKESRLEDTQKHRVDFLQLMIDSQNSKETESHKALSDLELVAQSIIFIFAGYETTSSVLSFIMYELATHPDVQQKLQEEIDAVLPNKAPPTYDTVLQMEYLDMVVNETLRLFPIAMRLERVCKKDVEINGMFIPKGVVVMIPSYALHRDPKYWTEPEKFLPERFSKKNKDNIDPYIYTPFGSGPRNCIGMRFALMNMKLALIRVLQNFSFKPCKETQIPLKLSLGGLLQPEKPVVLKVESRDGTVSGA
T1 sequence (P11712 whole entry): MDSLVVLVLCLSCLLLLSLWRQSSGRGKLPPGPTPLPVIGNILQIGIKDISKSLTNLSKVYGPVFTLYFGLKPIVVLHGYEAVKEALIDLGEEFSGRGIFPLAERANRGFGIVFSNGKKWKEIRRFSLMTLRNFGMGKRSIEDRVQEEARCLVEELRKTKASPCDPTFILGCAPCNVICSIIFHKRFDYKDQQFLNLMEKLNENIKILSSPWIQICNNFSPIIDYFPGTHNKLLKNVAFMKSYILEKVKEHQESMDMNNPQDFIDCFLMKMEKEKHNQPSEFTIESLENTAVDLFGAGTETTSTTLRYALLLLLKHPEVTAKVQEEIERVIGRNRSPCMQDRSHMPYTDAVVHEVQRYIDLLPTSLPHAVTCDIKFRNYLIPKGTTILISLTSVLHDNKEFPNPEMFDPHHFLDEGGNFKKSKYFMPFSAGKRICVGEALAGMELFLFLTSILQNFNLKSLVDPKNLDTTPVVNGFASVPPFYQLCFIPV
T2 sequence (P10635 whole entry): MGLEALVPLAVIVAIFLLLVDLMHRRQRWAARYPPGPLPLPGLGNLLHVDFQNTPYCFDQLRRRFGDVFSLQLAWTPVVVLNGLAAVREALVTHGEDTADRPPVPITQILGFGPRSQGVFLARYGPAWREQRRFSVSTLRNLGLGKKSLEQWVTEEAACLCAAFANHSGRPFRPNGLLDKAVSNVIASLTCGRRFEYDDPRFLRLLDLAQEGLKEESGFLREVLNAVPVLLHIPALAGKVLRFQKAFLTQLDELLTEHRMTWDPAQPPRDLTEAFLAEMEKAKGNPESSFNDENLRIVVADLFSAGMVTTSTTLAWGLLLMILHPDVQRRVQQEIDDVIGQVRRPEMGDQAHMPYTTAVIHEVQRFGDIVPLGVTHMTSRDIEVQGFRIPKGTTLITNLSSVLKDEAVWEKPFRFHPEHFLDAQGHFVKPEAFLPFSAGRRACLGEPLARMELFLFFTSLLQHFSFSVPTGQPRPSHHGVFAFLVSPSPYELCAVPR
T3 sequence (P33261 whole entry): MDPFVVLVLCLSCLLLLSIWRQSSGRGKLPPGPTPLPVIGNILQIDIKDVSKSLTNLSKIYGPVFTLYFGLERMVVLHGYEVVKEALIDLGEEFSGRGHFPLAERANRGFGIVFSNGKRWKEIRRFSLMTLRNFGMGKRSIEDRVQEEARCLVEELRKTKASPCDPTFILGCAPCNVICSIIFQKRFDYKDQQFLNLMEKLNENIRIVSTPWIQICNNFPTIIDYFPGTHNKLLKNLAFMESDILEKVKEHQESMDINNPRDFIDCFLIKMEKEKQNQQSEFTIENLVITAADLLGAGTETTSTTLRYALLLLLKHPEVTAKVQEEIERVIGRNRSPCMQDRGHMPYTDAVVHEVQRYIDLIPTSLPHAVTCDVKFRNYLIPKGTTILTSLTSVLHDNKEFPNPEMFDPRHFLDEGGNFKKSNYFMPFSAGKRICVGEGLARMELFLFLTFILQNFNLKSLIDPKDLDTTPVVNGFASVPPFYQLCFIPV

Rate of hydrolysis to CPHPC in human liver microsomes [1] | Compound hydrolysed after 24 h [2] | Solubility in biologically relevant media ([3]; biologically relevant media) | solubility at 4 h ([3]; FaSSIF (Simulated Fasted State Intestinal Fluid pH 6.5)) | solubility at 4 h ([3]; FeSSIF (Simulated Fed State Intestinal Fluid pH 6.5)) | solubility at 4 h ([3]; SGF (Simulated Gastric Fluid pH 1.6)) | solubility at 4 h ([3]; water (purified water), Water) | IC50 [4] | IC50 [5] | Rate of hydrolysis in human intestinal microsomes [6] | IC50 [7] | IC50 [8] | IC50 [9, 10] | IC50 [9, 11] | SMILES
high rate of hydrolysis | Less than 20% | highly soluble | 4400 µg/mL | 5000 µg/mL | 5200 µg/mL | 5500 µg/mL | > 33 µM | > 33 µM | low rate of hydrolysis | > 33 µM | > 33 µM | > 33 µM | > 33 µM | O=C(OCOC(=O)[C@H]1CCCN1C(=O)CCCCC(=O)N1CCC[C@@H]1C(=O)OCOC(=O)OC1CCOCC1)OC1CCOCC1 [Compound of Formula (I), (2R,2′R)-Bis(((((tetrahydro-2H-pyran-4-yl)oxy)carbonyl)oxy)methyl) 1,1′-adipoylbis(pyrrolidine-2-carboxylate)]
 |  |  |  |  |  |  | > 33 µM | > 33 µM |  | > 33 µM | > 33 µM | > 33 µM | > 33 µM | O=C(OCOC(=O)[C@H]1CCCN1C(=O)CCCCC(=O)N1CCC[C@@H]1C(=O)O)OC1CCOCC1 [mono-ester derivative, (R)-1-(6-oxo-6-((R)-2-((((((tetrahydro-2H-pyran-4-yl)oxy)carbonyl)oxy)methoxy)carbonyl)pyrrolidin-1-yl)hexanoyl)pyrrolidine-2-carboxylic acid]
